Results: PMC10810651, “Discovery of novel and potent CDK8 inhibitors for the treatment of acute myeloid leukaemia” (Journal of Enzyme Inhibition and Medicinal Chemistry, 2024)
Like-named read-outs stand apart in the source and are kept apart here.

Tests used:
[1] = target: CYP 2D6 (Homo sapiens, UniProt P10635); experiment: CYP inhibition activity, 2D6; type: in vitro ADME
Excerpt: Table 7. CYP inhibition activity. | column: IC50 (μM) / 2D6

[2] = target: CDK9 (Homo sapiens, UniProt P50750); experiment: CDKs selectivity, CDK9; type: biochemical
CDK9, sequence (P50750 whole entry): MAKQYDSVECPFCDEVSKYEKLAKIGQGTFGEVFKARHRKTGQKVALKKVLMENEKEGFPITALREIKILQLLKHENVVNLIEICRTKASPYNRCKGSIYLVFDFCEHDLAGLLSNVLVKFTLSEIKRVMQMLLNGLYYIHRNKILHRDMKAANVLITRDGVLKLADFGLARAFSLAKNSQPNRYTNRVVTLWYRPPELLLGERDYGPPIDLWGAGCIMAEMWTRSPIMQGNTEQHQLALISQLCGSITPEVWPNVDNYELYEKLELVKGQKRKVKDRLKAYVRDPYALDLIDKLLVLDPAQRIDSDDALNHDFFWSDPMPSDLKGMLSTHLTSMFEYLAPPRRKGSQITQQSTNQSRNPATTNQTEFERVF
Excerpt: (§1) CDK7 and CDK9 with the same transcription function and CDK2 and CDK6 were selected to evaluate the selectivity of compound 12.

[3] = target: CDK6 (Homo sapiens, UniProt Q00534); experiment: CDKs selectivity, CDK6; type: biochemical
CDK6, sequence (Q00534 whole entry): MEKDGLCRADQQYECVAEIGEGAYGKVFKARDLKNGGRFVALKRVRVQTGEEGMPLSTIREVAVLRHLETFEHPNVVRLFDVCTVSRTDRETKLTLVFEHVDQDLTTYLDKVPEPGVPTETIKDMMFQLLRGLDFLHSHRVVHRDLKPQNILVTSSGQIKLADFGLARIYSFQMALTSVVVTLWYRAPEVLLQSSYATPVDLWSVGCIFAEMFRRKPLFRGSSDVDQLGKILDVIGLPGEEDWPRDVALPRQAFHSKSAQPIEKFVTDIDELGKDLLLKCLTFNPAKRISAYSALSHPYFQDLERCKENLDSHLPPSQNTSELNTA
Excerpt: as §1

[4] = tested on: STAT5 S726; experiment: Phosphorylation of STAT5 S726, western blot; type: cell-based; settings: HL-60 cells, 12 h
Description: It has been reported that CDK8 could specifically target the transactivation domain of STAT1 at Ser727 phosphorylation. HCT-116 cells were treated with compounds 12 with different concentrations of 1 μM, 2 μM, 4 μM separately to verify compound 12 could inhibit the phosphorylation of STAT1 Ser727. […] It’s reported that CDK8 was also involved in S726 phosphorylation of STAT5 in AML cells.
Figure 6. Compound 12 inhibited phosphorylation of STAT1 S727 and STAT5 S726. (A) Compound 12 suppressed the phosphorylation of STAT1 S727 in a dose-dependent manner. HCT-116 cells were treated with compound for 12 h. (B) Compound 12 suppressed the phosphorylation of STAT5 S726 in a dose dependent manner. HL-60 cells were treated with or without compound for 12 h. The samples were analysed by Western blot.
1.7 The effect of compound on phosphorylation of STAT1 S727
HCT-116 cells were seeded into 60 mm cultural dishes at a density of 1.5×10^6 cells per dishes. […] Levels of total STAT1, phosphorylated STAT1 S727, Y701 and GAPDH were analyzed. […]
Levels of total STAT5, phosphorylated STAT5 S726 and GAPDH were analyzed.
The results were expressed as the means ± SEMs (SPSS software), and the differences between groups were evaluated using Turkey’s method (GraphPad Software). […]

[5] = target: CYP 1A2 (Homo sapiens, UniProt P05177); experiment: CYP inhibition activity, 1A2; type: in vitro ADME
CYP 1A2, sequence (P05177 whole entry): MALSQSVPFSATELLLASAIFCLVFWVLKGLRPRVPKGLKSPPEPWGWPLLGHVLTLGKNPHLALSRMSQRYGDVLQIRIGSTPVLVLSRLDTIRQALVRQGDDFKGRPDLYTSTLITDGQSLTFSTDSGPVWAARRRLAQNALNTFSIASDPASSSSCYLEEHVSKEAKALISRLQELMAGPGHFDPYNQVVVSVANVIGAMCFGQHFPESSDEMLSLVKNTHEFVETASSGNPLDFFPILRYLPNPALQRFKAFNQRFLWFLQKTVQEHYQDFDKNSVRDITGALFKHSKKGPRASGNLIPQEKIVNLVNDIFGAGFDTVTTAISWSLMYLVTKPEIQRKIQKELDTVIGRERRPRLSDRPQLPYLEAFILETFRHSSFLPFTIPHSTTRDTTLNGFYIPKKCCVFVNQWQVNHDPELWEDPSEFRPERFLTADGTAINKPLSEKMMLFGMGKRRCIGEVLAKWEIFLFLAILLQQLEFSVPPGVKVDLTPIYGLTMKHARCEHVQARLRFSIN
Excerpt: Table 7. CYP inhibition activity. | column: IC50 (μM) / 1A2

[6] = In vivo pharmacokinetic evaluation
Description: Pharmacokinetic data is an important parameter for small molecule drugs. Here, the pharmacokinetic data of compound 12 was performed. […] Based on the above data analysis, we believed it is possible that compound 12 could be used as an oral medication (Figure 7).

[7] = tested on: HT-29; experiment: Antiproliferative CCK-8 assay, HT-29; type: cell-based; settings: Homo sapiens; HT-29, CCK-8 assay, means ± SD; read-out: GC50 (the source's name)
Excerpt: (§2) Compounds12, 13 and 30 were selected for further cell activity assessments based on the enzymatic activity assessment results. molm-13 and MV4-11(acute myeloid lineage leukaemia cells), MGC-803 (gastric cancer cell), MDA-MB-231(breast cancer cell), A375 (melanoma cell), A549 (lung cancer cell), HCT-116, SW-480 and HT-29 (colorectal cancer cells) were selected to evaluate antitumor activity in vitro, GES-1 (gastric mucosal epithelial cell) was selected to evaluate toxicity in vitro.
(§3) CO2 atmosphere incubator for 24 h. Then, medium with compound at the concentrations of 100, 20, 4, 0.8, 0.016 μM was added into each well for another 48 h and incubated with CCK-8 (10 μL) for 2 h at 37 °C. The absorbance value at 450 nm was measured by the microplate reader (PerkinElmer Envision). […]

[8] = tested on: GES-1; experiment: In vitro toxicity CCK-8 assay, GES-1; type: cell-based; settings: Homo sapiens, GES1, GES-1 gastric mucosal epithelial cell, read-out: GC50 (the source's name)
Excerpt: as §2, §3

[9] = blood, iv, 2 mg/kg, 2 mg/kg (iv)
[10] = blood, po, 10 mg/kg, 10 mg/kg (po)

CYP 2D6, sequence (P10635 whole entry): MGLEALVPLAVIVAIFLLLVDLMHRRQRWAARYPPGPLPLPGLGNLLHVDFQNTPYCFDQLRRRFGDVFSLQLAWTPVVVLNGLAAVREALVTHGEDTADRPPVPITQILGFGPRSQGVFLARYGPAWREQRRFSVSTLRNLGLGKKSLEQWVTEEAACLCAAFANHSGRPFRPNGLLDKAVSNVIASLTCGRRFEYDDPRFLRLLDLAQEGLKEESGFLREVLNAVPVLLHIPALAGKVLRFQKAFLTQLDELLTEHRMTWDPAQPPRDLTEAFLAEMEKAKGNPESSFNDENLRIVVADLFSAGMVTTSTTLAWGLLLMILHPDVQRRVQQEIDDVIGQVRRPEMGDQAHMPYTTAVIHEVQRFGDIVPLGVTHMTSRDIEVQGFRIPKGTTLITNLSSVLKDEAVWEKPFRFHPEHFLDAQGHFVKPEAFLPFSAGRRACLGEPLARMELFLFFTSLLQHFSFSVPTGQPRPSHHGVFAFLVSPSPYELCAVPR

NC(=O)c1cccc(-c2cnc3[nH]cc(-c4ccoc4)c3c2)c1 [Compound 12, 3-(3-(furan-3-yl)-1H-pyrrolo[2,3-b]pyridin-5-yl)benzamide]
IC50 [1]: > 50 µM | IC50 [2]: 0.474 ± 0.0253 µM | IC50 [3]: 0.352 ± 0.0365 µM | Phosphorylation of STAT5 S726 [4]: could inhibit phosphorylation of STAT5 S726 in a dose-dependent manner | IC50 [5]: > 50 µM | AUC 0-∞ ([6]; 2 mg/kg (iv)): 829.75 ng·h/mL | Cmax ([6]; 2 mg/kg (iv)): 647.79 ng/mL | AUC 0-∞ ([6]; 10 mg/kg (po)): 1611.67 ng·h/mL | CL ([6]; 10 mg/kg (po)): 104 mL/min/kg | Cmax ([6]; 10 mg/kg (po)): 821.82 ng/mL | AUC(0-inf) [6, 9]: 830 ng·h/mL | half-life [6, 9]: ~1.12 h | Cmax ([6]; blood, iv, 2 mg/kg, 2 mg/kg (iv), read-out: Cmax): 648 ng/mL | AUC(0-inf) [6, 10]: 1610 ng·h/mL | half-life [6, 10]: 0.95 h | Cmax ([6]; blood, po, 10 mg/kg, 10 mg/kg (po), read-out: Cmax): 822 ng/mL | MRT ([6]; blood, 2 mg/kg (iv)): 1.64 h | Tmax ([6]; blood, 2 mg/kg (iv)): 0.33 h | clearance ([6]; blood, 2 mg/kg (iv)): 40.8 mL/min/kg | MRT ([6]; blood, 10 mg/kg (po)): 2.24 h | Tmax ([6]; blood, 10 mg/kg (po)): 0.88 h | bioavailability ([6]; blood, 10 mg/kg (po) vs 2 mg/kg (iv)): 38.8% | IC50 [7]: 8.26 ± 0.65 µM | IC50 [8]: 25.7 ± 4.97 µM
